# US11324750B2, “Compositions and methods for the treatment of severe acute respiratory syndrome coronavirus 2 (SARS-CoV-2) infection” (Children's Hospital Medical Center, priority 2020, dated 2022)
# Tested on: SARS-CoV-2-specific IgM and IgG
# Experiment: SARS-CoV-2-specific IgM and IgG detection (CLIA)
# Assay type: in vivo, human
# Conditions: vs control group
# Excerpt: SARS-CoV-2-specific IgM and IgG detection. The SARS-CoV-2-specific IgM and IgG were detected by paramagnetic particle chemiluminescent immunoassay (CLIA) using iFlash-SARS-CoV-2 IgM/IgG assay kit (SHENZHEN YHLO BIOTECH CO., LTD.) and iFlash Immunoassay Analyzer (SHENZHEN YHLO BIOTECH CO., LTD.)
# Procedures. The first day of randomization was designated as D0. The second and the fourth day after randomization were designated D1 and D3, respectively. Dx referred to the day when either disease progressed according to the Chinese management guideline for COVID-19 (version 5.0) or defined as a one-category increase on the seven-category scale. Dend was the day before discharge. The enrolled patients were randomly separated into two groups: the treatment group (group B) received oral intake of ruxolitinib (Jakafi®, Novartis Pharma Stein AG, Switzerland) 5 mg twice a day plus standard-of-care (SoC); the control group (group A) is treated with placebo twice a day with SoC. […] Safety was monitored daily by two independent senior physicians from the trial center. […] The CT features of improvement were evaluated by two independent senior radiologists blindly, which should at least meet one of the following criteria: decreased presence of ground-glass opacities (GGO), decreased lung opacification, reduced density of consolidation or decreased pleural effusion with existence of fibrous stripes^29. […]
structure (smiles),measurement,setting,value
"N#CC[C@H](C1CCCC1)n1cc(-c2ncnc3[nH]ccc23)cn1 [Ruxolitinib, (3R)-3-cyclopentyl-3-[4-(7H-pyrrolo[2,3-d]pyrimidin-4-yl)pyrazol-1-yl]propanenitrile]",Peak IgG against SARS-CoV-2,,no significant difference
same,Peak level of anti-IgM of SARS-CoV-2,P=0.039,profoundly higher
